Source: patent publication US20110230476A1, “PI3 KINASE INHIBITORS AND USES THEREOF” (AVILA THERAPEUTICS, INC., priority 2009, published 2011)
pEC50, pIC50: −log10 of the molar value.

Tests used:
PI3Kγ (p120γ) = biological target: T1, PI3Kγ (p120γ) (Homo sapiens, UniProt P48736); assay: HTRF assay, potency against active PI3Kγ; assay type: biochemical; conditions: [ATP]=50 μM, [di-C8-PIP2]=10 μM, 30 min pre-incubation, read-out: PI3Kγ Inhibition
T1 construct: purchased BPS Bioscience (San Diego, Calif.) or Millipore (Billerica, Mass.)
Method in brief: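 End-point competition HTRF: enzyme (p110β/p85α 0.75 nM; p120γ 2-2.5 nM) with 10 μM di-C8-PIP2 pre-incubated 30 min at 25° C with compound, then 50 μM ATP added for 30-60 min at 25° C. Stopped, detected after 1 and 18 h; IC50 from variable-slope fit.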

Phospho-Akt(Ser473) [1] = assay: Dose response in SKOV3 cells as determined by in-cell Western; assay type: cell-based; conditions: Homo sapiens, SK-OV-3; SKOV3 cells, 1 hr; read-out: pAKT Inhibition in cell Western
Method in brief: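 SKOV3 cells treated with compound for 1 hr, then formaldehyde-fixed, permeabilised and stained overnight for phospho-Akt(Ser473) with anti-tubulin as a reference. Infrared secondary antibodies read at 680 and 800 nm channels by in-cell Western imaging.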

Phospho-Akt(Ser473) [2] = assay: Dose response in SKOV3 cells as determined by Western blot; assay type: cell-based; conditions: Homo sapiens, SK-OV-3, 1 hr, Phospho-Akt normalized to total Akt, read-out: Immunoblot
Description: Dose Response in SKOV3 Cells as Determined by Western Blot
SKOV3 cells were plated in SKOV3 Growth Media (DMEM supplemented with 10% FBS and pen/strep) at a density of 4×10^5 cells per well of 12 well plates. Twenty four hours later the media was removed and replaced with 1 ml media containing test compound and 0.1% DMSO and cells were returned to the incubator for 1 hr. At the end of the hour, the media was removed and the cells were washed with PBS, then lysed and scraped into 30 ul of Cell Extraction Buffer (Biosource, Camarillo, Calif.) plus Complete Protease Inhibitor and PhosStop Phosphatase Inhibitor (Roche, Indianapolis, Ind.).
Cell debris was spun down at 13,000×g for 1 minute and the supernatant was taken as the cell lysate. Protein concentration of the lysate was determined by BCA Assay (Pierce Biotechnology, Rockford, Ill.) and 50 ug of protein was loaded per well onto a NuPAGE Novex 4-12% Bis-Tris gel (Invitrogen, Carlsbad, Calif.) then transferred to Immobilon PVDF-FL (Millipore, Billerica, Mass.).
The blot was blocked in Odyssey Blocking Buffer (Li-Cor Biosciences, Lincoln, Nebr.) for 1 hr then incubated overnight at 4° C. with mouse anti-Akt (#2920) and rabbit anti-Phospho-Akt(Ser473) (#9271)(Cell Signaling Technology, Boston, Mass.) antibodies, both diluted 1:1000 in PBS/Odyssey Buffer (1:1)+0.1% Tween-20. The blots were washed 3 times 5 minutes in PBS+0.2% Tween-20 then incubated for 1 hr at room temperature with fluorescently labeled secondary antibodies (Li-Cor) diluted 1:10000 in PBS/Odyssey Buffer (1:1)+0.1% Tween-20.
The blots were washed 2 times for 5 minutes in PBS+0.2% Tween-20, once in distilled water, then scanned on an Odyssey machine (Li-Cor). Band intensity was determined using the Odyssey software and Phopho-Akt signal was normalized to total Akt within samples, then expressed as a percentage of the untreated Phospho-Akt signal.

PI3Kα (p110α/p85α) = biological target: T2, PI3Kα (p110α/p85α) (Homo sapiens, UniProt P42336); assay: HTRF assay, potency against active PI3Kα; assay type: biochemical; conditions: HTRF; [ATP]=50 μM, [di-C8-PIP2]=10 μM; 30 min pre-incubation; read-out: PI3Kα Inhibition
T2 construct: purchased BPS Bioscience (San Diego, Calif.) or Millipore (Billerica, Mass.)
Method in brief: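 Active p110/p85α lipid kinase reactions were started with ATP and run 30-60 minutes at 25 °C, then stopped and developed with HTRF detection mix. HTRF ratio converted to % inhibition against ±enzyme controls; IC50 from log[inhibitor] vs response, variable slope.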

PI3Kα = PI3Kα (Homo sapiens, UniProt P42336); assay: Mass spectrometry of intact PI3Kα (Millipore, 14-602), 1 hr incubation; assay type: binding; parameters: purchased Millipore 14-602; conditions: 10× fold excess of compound, MALDI
Description: Mass Spectrometry for PI3K
Aliquots (5 μl) of the samples were diluted with 15 μl of 0.2% TFA prior to micro C4 ZipTipping directly onto the MALDI target using Sinapinic acid as the desorption matrix (10 mg/ml in 0.1% TFA:Acetonitrile 50:50).

SKOV3 cells = assay: GI50 determinations in SKOV3 cells; assay type: cell-based; conditions: Homo sapiens, SK-OV-3; SKOV3 cells, 96 hours, Cell Titer Glo
Description: GI50 Determinations in SKOV3 Cells
A standard curve ranging from 10,000 to 50,000 cells was set up in a separate plate and allowed to adhere to the plate for 4-6 hours, at which time the plate was developed using Cell Titer-Glow (Promega, Madison, Wis.) according to manufacturer's instructions.
The next morning, 3-fold compound dilutions ranging from 10,000 nM to 40 nM were prepared in Proliferation Media containing 1% DMSO. 20 ul of each dilution was added to the SKOV3 cells plated the previous day resulting in a dose response curve from 1000 nM to 4 nM. The cells were incubated for 96 hours and then developed with Cell Titer Glo.
The cell numbers at the end of the assay were determined using the standard curve generated at the start of the assay. Growth inhibition was calculated using the following formulas and GI50s were determined by plotting the % growth inhibition vs. Log compound concentration in GraphPad.
%growth=100×(T−T0)/(C−T0)
T=Cell Number at end of assay T0=Cell Number at start of assay (5000) C=Number of cells in DMSO controls at end of assay
%growth inhibition=100−%growth

T2 sequence (P42336 whole entry): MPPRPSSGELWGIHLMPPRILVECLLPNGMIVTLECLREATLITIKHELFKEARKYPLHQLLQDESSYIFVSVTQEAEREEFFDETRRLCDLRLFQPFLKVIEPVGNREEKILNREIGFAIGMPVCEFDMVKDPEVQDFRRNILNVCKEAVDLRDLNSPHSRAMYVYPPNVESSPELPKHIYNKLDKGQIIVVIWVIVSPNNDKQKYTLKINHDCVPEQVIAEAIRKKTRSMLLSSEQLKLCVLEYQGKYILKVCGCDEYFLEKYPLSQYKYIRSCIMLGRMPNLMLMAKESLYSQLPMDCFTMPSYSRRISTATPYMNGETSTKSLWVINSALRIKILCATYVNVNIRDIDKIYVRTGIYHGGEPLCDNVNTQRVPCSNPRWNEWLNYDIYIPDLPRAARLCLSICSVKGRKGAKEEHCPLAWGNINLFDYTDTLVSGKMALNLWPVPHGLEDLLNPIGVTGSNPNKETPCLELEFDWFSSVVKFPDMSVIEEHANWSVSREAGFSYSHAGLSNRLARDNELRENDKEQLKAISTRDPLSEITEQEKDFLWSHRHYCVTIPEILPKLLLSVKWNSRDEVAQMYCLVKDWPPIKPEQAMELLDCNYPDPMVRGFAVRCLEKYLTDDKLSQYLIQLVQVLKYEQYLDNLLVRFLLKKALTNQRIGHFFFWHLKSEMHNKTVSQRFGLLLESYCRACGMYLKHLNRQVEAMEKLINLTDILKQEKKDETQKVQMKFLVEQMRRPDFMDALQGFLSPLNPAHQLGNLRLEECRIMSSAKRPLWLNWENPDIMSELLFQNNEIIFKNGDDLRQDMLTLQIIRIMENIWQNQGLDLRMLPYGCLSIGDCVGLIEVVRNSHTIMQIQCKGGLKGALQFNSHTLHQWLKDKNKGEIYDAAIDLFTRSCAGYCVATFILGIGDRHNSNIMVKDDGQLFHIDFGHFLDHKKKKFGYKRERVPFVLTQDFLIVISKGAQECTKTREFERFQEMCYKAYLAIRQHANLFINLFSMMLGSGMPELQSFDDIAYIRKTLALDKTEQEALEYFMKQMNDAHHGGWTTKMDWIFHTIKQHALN
T2 sequence (P27986 whole entry partner): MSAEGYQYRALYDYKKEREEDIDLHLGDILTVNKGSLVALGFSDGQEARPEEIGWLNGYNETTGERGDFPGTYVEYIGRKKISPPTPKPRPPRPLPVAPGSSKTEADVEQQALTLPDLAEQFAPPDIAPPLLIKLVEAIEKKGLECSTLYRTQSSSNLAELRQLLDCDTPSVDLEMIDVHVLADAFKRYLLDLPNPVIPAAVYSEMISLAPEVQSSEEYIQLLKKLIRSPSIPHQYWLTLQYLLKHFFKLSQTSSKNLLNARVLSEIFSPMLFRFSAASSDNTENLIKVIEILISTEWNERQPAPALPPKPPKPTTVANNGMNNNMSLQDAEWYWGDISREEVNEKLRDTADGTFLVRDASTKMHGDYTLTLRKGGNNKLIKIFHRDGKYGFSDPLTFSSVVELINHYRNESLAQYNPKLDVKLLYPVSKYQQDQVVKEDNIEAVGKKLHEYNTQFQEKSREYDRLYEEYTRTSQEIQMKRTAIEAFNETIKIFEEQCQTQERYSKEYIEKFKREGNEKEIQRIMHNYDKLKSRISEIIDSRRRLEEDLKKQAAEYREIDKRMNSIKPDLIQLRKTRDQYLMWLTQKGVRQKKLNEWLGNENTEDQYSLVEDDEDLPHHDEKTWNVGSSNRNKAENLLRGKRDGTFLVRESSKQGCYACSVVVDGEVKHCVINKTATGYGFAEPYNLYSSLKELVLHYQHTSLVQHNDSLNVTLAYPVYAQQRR
Sequence of PI3Kα (P42336 whole entry): as the sequence (P42336 whole entry) above
Sequence of PI3Kα (P27986 whole entry partner): as the sequence (P27986 whole entry partner) above
T1 sequence (P48736 whole entry): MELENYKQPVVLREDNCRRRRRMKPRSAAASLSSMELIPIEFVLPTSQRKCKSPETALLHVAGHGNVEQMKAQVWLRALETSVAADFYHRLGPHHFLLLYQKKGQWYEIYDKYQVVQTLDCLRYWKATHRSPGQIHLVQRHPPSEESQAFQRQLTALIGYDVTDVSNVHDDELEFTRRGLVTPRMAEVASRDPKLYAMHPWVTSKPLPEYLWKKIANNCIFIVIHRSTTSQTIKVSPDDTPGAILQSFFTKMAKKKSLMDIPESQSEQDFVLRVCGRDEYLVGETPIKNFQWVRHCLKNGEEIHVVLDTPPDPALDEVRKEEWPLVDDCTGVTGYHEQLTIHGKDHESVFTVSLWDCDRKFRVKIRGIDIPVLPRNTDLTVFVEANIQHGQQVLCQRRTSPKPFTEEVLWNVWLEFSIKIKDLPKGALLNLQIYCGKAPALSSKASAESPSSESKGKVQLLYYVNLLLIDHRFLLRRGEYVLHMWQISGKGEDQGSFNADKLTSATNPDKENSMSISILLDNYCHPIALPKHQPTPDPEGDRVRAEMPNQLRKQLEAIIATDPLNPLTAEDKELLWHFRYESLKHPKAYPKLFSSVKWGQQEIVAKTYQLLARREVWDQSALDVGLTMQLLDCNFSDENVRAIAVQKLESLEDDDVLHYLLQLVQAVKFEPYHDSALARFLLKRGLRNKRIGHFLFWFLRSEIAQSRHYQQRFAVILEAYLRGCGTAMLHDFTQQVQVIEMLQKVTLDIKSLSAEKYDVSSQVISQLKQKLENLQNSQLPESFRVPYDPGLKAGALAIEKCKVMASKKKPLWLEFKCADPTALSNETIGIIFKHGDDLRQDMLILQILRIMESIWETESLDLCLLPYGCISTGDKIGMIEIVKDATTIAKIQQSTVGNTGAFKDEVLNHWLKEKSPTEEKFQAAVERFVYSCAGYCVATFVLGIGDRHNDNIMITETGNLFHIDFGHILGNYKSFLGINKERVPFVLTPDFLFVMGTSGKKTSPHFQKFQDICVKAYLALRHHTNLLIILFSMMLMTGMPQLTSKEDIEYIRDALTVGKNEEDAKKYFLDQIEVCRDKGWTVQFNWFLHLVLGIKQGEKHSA

Structure (SMILES)	pIC50 (PI3Kγ (p120γ))	pEC50 (Phospho-Akt(Ser473) [1])	pIC50 (PI3Kα (p110α/p85α))	covalent modification of PI3Kα (PI3Kα)	GI50 (SKOV3 cells) [nM]	pEC50 (Phospho-Akt(Ser473) [2])
CC(C)=CC(=O)CCCC(=O)N1CC=C(c2cc3nc(-c4cnc(N)nc4)cc(N4CCOCC4)c3s2)CC1 [II-g-3, 1-(4-(5-(2-aminopyrimidin-5-yl)-7-morpholinothieno[3,2-b]pyridin-2-yl)-5,6-dihydropyridin-1(2H)-yl)-7-methyloct-6-ene-1,5-dione]	6.00 to 7.00	≥ 8.00	6.00 to 7.00			6.00 to 7.00
O=C(/C=C/c1ccccn1)CCC(=O)NCC12CCC(c3cc4nc(-c5cccc6[nH]ncc56)nc(N5CCOCC5)c4s3)(CC1)OC2 [II-a-163, (E)-N-((1-(2-(1H-indazol-4-yl)-4-morpholinothieno[3,2-d]pyrimidin-6-yl)-2-oxabicyclo[2.2.2]octan-4-yl)methyl)-4-oxo-6-(pyridin-2-yl)hex-5-enamide]		7.00 to 8.00	< 6.00		100 to 1000	
C=CC(=O)Nc1cc(C(=O)N2CC=C(c3cc4nc(-c5cnc(N)nc5)nc(N5CCOCC5)c4s3)CC2)ccc1Cl [II-a-159, N-(5-(4-(2-(2-aminopyrimidin-5-yl)-4-morpholinothieno[3,2-d]pyrimidin-6-yl)-1,2,3,6-tetrahydropyridine-1-carbonyl)-2-chlorophenyl)acrylamide]			7.00 to 8.00		100 to 1000	
O=C(/C=C(/c1ccccc1)C(F)(F)F)CCC(=O)N1CCN(Cc2cc3nc(-c4cccc5[nH]ncc45)nc(N4CCOCC4)c3s2)CC1 [II-a-158, (Z)-1-(4-((2-(1H-indazol-4-yl)-4-morpholinothieno[3,2-d]pyrimidin-6-yl)methyl)piperazin-1-yl)-7,7,7-trifluoro-6-phenylhept-5-ene-1,4-dione]			7.00 to 8.00		100 to 1000	
C=C(CC)C(=O)CCC(=O)N1CCN(Cc2cc3nc(-c4cccc5[nH]ncc45)nc(N4CCOCC4)c3s2)CC1 [II-a-86, 1-(4-((2-(1H-indazol-4-yl)-4-morpholinothieno[3,2-d]pyrimidin-6-yl)methyl)piperazin-1-yl)-5-methyleneheptane-1,4-dione]		≥ 8.00	7.00 to 8.00		10 to 100	
C=CC(=O)Nc1ccc(C(=O)N2CC=C(c3cc4nc(-c5cnc(N)nc5)cc(N5CCOCC5)c4s3)CC2)cc1 [II-g-2, N-(4-(4-(5-(2-aminopyrimidin-5-yl)-7-morpholinothieno[3,2-b]pyridin-2-yl)-1,2,3,6-tetrahydropyridine-1-carbonyl)phenyl)acrylamide]	6.00 to 7.00	≥ 8.00	6.00 to 7.00		100 to 1000	
C=C(C)C(=O)CCCC(=O)N1CCN(Cc2cc3nc(-c4cccc5[nH]ncc45)nc(N4CCOCC4)c3s2)CC1 [II-a-14]	< 6.00	≥ 8.00	7.00 to 8.00			7.00 to 8.00
C=CC(=O)Nc1ccc(C(=O)N2CCN(C(=O)c3cc4nc(-c5cccc6[nH]ncc56)nc(N5CCOCC5)c4s3)CC2)cc1 [II-a-143, N-(4-(4-(2-(1H-indazol-4-yl)-4-morpholinothieno[3,2-d]pyrimidine-6-carbonyl)piperazine-1-carbonyl)phenyl)acrylamide]		≥ 8.00	6.00 to 7.00		100 to 1000	

Second part, led by results:

pIC50 (PI3Kγ (p120γ))	pEC50 (Phospho-Akt(Ser473) [1])	pIC50 (PI3Kα (p110α/p85α))	covalent modification of PI3Kα (PI3Kα)	GI50 (SKOV3 cells) [nM]	Structure (SMILES)	pEC50 (Phospho-Akt(Ser473) [2])
	6.00 to 7.00	< 6.00	similarly modify		CC(C)=CC(=O)CCC(=O)N1CC2(CCN(c3cc(-c4cnc(N)nc4)nc(N4CCOCC4)c3)CC2)C1 [XII-42, 1-(7-(2-(2-aminopyrimidin-5-yl)-6-morpholinopyridin-4-yl)-2,7-diazaspiro[3.5]nonan-2-yl)-6-methylhept-5-ene-1,4-dione]	
	6.00 to 7.00	6.00 to 7.00	similarly modify		C=CC(=O)Nc1ccc(C(=O)N2CCC3(CC2)CN(c2cc(-c4cnc(N)nc4)nc(N4CCOCC4)c2)C3)cc1 [XII-52, N-(4-(2-(2-(2-aminopyrimidin-5-yl)-6-morpholinopyridin-4-yl)-2,7-diazaspiro[3.5]nonane-7-carbonyl)phenyl)acrylamide]	
		7.00 to 8.00		10 to 100	C=CC(=O)Nc1ccc(C(=O)NCCOc2ccc3c(c2OC)N=C(NC(=O)c2cccnc2)N2CCN=C32)cc1 [IX-5, N-(8-(2-(4-acrylamidobenzamido)ethoxy)-7-methoxy-2,3-dihydroimidazo[1,2-c]quinazolin-5-yl)nicotinamide]	
	6.00 to 7.00	6.00 to 7.00		100 to 1000	C=CC(=O)Nc1ccc(CC(=O)N2CCC(n3ncc4c(N5CCOCC5)nc(-c5ccc(NC(=O)NC)cc5)nc43)CC2)cc1 [VII-9, N-(4-(2-(4-(6-(4-(3-methylureido)phenyl)-4-morpholino-1H-pyrazolo[3,4-d]pyrimidin-1-yl)piperidin-1-yl)-2-oxoethyl)phenyl)acrylamide]	
		6.00 to 7.00		100 to 1000	CNC(=O)Nc1ccc(-c2nc(N3CCOCC3)c3cnn(C4CCN(C(=O)CCCC(=O)/C=C/c5ccccc5)CC4)c3n2)cc1 [VII-11, (E)-1-methyl-3-(4-(4-morpholino-1-(1-(5-oxo-7-phenylhept-6-enoyl)piperidin-4-yl)-1H-pyrazolo[3,4-d]pyrimidin-6-yl)phenyl)urea]	
		6.00 to 7.00		10 to 100	CNC(=O)Nc1ccc(-c2nc(N3CCOCC3)c3cnn(C4CCN(C(=O)CCC(=O)/C=C/c5ccccc5)CC4)c3n2)cc1 [VII-10, (E)-1-methyl-3-(4-(4-morpholino-1-(1-(4-oxo-6-phenylhex-5-enoyl)piperidin-4-yl)-1H-pyrazolo[3,4-d]pyrimidin-6-yl)phenyl)urea]	
		6.00 to 7.00	similarly modify		CC(C)=CC(=O)c1ccc(CCNC(=O)c2cc(-c3cnc(N)nc3C)nc(N3CCOCC3)c2)cc1 [XII-15, 2-(2-amino-4-methylpyrimidin-5-yl)-N-(4-(3-methylbut-2-enoyl)phenethyl)-6-morpholinoisonicotinamide]	
	6.00 to 7.00	6.00 to 7.00		100 to 1000	C=CC(=O)Nc1ccc(C(=O)N2CCC(n3ncc4c(N5CCOCC5)nc(-c5ccc(NC(=O)NC)cc5)nc43)CC2)cc1 [VII-8, N-(4-(4-(6-(4-(3-methylureido)phenyl)-4-morpholino-1H-pyrazolo[3,4-d]pyrimidin-1-yl)piperidine-1-carbonyl)phenyl)acrylamide]	
		< 6.00	similarly modify		CC(C)=CC(=O)CCc1ccc(C#Cc2cc(-c3cnc(N)nc3C)nc(N3CCOCC3)c2)cc1 [XII-18, 1-(4-((2-(2-amino-4-methylpyrimidin-5-yl)-6-morpholinopyridin-4-yl)ethynyl)phenyl)-5-methylhex-4-en-3-one]	
